Reference: ChEMBL document CHEMBL5608192, “Discovery and characterization of small-molecule TGR5 ligands with agonistic activity” (Eur J Med Chem, 2024)

Key:
[1] = Effect on CRE-luciferase activity in TGR5 non-expressing HEK293-A cells transfected with EPAC-based FRET biosensor assessed as fold activation at 30 uM incubated for 18 hrs by spectrophotometric analysis relative to control; assay type: functional, Homo sapiens
[2] = Effect on cAMP accumulation in non-TGR5 expressing HEK293-A cells transfected with EPAC-based FRET biosensor at 30 uM incubated for 10 mins in presence of IBMX and roflumilast by fluorescence based photometry relative to control; assay type: functional, Homo sapiens
[3] = molecular target: T1, G-protein coupled bile acid receptor 1 (Homo sapiens, UniProt Q8TDU6); assay: Agonist activity at human TGR5 expressed in HEK293-A cells co-transfected with EPAC-based FRET biosensor assessed as increase in cAMP accumulation incubated for 10 mins by spectrophotometry; assay type: functional, cell-based
T1 sequence (Q8TDU6 whole entry): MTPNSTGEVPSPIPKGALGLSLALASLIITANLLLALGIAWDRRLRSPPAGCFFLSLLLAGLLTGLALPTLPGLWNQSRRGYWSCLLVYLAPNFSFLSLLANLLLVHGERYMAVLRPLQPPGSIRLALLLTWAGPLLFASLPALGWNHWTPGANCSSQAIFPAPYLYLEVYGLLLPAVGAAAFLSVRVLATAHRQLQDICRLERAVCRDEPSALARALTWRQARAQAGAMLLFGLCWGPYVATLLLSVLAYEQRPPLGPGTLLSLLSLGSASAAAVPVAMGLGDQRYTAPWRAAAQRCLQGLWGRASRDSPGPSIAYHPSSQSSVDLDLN

[4] = molecular target: T1, G-protein coupled bile acid receptor 1; assay: (§1) Agonist activity at human TGR5 expressed in HEK293-A cells co-transfected with EPAC-based FRET biosensor incubated for 18 hrs by CRE-luciferase reporter gene assay; assay type: functional, cell-based
[5] = molecular target: T2, G-protein coupled bile acid receptor 1 (Homo sapiens) (UniProt Q8TDU6); assay: as §1; assay type: functional, cell-based; conditions: filed as agonist
T2 sequence (whole entry): T1 sequence (Q8TDU6 whole entry)

EC50 [3]	EC50 [4]	Activity [5]	SMILES	fold change (FC) [1]	Activity [2]
			Cc1cc(S(=O)(=O)NCCn2ccnc2C2CC2)c(Cl)cc1Cl	0.96	103.9%
30 µM	19 µM	Dose-Dependent Effect	CC1(C)c2ccccc2CCN1CC(=O)NC[C@@H]1Cc2ccccc2O1	0.82	103.7%
		Dose-Dependent Effect	CO[C@@H](CNC(=O)CCc1cc2cc(Br)ccc2s1)Cc1ccccc1	0.75	106.4%
			Cc1ccc(CCCNC(=O)NCc2cn3c(C)cccc3n2)c(C)c1	0.87	
		Dose-Dependent Effect	CC(C)c1ccccc1OCCC(=O)NC[C@@H]1Cc2ccccc21	0.57	107.1%
			c1ccc(-n2cccc2CNC2CCCN(C3Cc4ccccc4C3)C2)nc1 (stereo not drawn)	1.44	104%
			c1cc(CNC2CC2)cc(-c2cccc3cccnc23)c1	1.22	105.3%
